The target of assay [1] is T1, 5-hydroxytryptamine receptor 3A (Homo sapiens) (UniProt P46098).
T1 sequence (whole entry): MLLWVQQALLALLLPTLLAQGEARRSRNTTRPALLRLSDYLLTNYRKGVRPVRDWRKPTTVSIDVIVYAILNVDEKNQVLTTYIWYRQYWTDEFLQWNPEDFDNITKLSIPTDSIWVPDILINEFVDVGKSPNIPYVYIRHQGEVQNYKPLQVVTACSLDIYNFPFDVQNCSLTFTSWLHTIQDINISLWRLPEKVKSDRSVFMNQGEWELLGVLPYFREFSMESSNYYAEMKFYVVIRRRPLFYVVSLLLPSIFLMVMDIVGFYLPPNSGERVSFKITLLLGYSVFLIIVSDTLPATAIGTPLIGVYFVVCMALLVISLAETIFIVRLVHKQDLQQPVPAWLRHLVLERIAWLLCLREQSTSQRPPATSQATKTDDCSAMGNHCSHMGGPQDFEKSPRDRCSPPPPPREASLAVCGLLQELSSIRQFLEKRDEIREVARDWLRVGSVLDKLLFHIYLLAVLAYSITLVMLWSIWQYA
Kind of assay: Agonist activity at recombinant human 5-HT3 at 10 uM by aequorin reporter based assay relative to agonist.

The target in assay [2] is T2, Adenosine receptor A3 (Homo sapiens) (UniProt P0DMS8).
T2 sequence (whole entry): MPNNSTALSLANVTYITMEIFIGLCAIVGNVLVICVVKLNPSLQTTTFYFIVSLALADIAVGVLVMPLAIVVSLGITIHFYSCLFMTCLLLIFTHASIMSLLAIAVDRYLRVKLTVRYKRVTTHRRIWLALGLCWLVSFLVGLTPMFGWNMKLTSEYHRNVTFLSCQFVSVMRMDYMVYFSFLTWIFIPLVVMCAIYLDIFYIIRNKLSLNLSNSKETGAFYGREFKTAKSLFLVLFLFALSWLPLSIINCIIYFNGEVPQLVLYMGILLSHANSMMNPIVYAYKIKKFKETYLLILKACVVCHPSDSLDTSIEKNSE
Kind of assay: Agonist activity at recombinant human adenosine A3 receptor […] at 10 uM by HTRF assay relative to agonist. In kind it is functional.

Assay [3] addresses T3, 5-hydroxytryptamine receptor 2C (Homo sapiens) (UniProt P28335).
T3 sequence (whole entry): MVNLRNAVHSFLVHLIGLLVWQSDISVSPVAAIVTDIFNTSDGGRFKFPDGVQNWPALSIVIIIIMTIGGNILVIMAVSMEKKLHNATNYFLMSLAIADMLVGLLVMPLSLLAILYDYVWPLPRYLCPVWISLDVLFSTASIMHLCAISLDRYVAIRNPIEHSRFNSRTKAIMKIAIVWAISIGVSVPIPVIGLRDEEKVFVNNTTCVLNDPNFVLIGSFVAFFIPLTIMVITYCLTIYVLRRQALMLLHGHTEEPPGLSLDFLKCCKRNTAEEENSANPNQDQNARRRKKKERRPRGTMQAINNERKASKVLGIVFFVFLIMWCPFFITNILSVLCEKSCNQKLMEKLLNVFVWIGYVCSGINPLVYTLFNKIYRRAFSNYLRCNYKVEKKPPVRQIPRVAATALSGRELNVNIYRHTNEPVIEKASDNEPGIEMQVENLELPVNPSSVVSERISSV
Briefly: Agonist activity at recombinant human 5-HT2C at 10 uM by aequorin reporter based assay relative to agonist. In kind it is functional.

Assay [4] addresses T4, Alpha-1B adrenergic receptor (Homo sapiens) (UniProt P35368).
T4 sequence (whole entry): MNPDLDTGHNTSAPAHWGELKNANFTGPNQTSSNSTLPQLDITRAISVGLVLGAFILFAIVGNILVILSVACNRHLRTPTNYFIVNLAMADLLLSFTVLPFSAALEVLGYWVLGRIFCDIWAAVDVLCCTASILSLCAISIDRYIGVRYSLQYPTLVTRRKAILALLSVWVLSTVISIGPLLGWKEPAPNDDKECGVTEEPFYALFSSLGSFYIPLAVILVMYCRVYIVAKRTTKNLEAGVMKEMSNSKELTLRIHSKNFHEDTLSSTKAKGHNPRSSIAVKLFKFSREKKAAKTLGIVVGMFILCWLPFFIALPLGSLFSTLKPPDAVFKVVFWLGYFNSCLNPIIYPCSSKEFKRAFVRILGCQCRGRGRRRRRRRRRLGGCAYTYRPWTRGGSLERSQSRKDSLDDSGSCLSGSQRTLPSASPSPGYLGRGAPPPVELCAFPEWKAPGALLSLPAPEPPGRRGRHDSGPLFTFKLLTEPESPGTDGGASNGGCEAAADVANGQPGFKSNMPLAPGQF
Briefly: Antagonist activity at recombinant human alpha-1b adrenergic receptor assessed as inhibition of agonist-induced […] reporter based assay. It counts as functional.

The target of assay [5] is Histamine H2 receptor (Homo sapiens) (UniProt P25021). Kind of assay: Agonist activity at recombinant human histamine H2 receptor assessed as induction of cAMP levels at 10 uM by HTRF assay relative to agonist. It counts as functional. Background: Cyclic AMP is a second messenger, typically raised through Gs and lowered through Gi signalling.
Histamine H2 receptor (Homo sapiens), sequence (P25021 whole entry): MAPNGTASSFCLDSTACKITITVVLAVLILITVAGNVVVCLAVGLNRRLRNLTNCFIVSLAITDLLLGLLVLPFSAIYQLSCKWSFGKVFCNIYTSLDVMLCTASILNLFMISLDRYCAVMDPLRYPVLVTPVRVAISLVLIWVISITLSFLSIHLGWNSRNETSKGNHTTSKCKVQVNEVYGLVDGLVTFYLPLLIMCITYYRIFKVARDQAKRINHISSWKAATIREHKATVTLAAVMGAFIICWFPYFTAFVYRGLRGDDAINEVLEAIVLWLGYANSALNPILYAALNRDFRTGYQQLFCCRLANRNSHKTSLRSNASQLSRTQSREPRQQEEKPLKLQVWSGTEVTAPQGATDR
The target of assay [6] is Muscarinic acetylcholine receptor M3 (Homo sapiens) (UniProt P20309). Kind of assay: Antagonist activity at recombinant human muscarinic M3 receptor assessed as inhibition of agonist-induced effect at 10 uM by aequorin reporter based assay. In kind it is functional.
Muscarinic acetylcholine receptor M3 (Homo sapiens), sequence (P20309 whole entry, looked up): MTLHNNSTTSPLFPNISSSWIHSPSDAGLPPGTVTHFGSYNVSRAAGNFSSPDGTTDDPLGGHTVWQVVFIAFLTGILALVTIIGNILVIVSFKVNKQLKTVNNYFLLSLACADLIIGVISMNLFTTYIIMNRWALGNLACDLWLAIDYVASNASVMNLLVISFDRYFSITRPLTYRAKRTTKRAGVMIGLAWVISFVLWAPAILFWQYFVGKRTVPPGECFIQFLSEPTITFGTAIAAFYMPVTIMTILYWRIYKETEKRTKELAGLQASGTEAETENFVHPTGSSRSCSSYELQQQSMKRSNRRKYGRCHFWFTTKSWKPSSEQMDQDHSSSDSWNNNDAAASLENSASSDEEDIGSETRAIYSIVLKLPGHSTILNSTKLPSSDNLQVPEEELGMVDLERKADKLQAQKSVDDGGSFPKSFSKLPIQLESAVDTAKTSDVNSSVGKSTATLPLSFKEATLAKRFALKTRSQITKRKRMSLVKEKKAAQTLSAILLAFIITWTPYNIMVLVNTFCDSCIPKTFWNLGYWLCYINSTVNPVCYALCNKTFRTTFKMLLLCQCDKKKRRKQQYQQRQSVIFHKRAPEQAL
Assay [7] addresses T5, Cholecystokinin receptor type A (Homo sapiens) (UniProt P32238).
T5 sequence (whole entry): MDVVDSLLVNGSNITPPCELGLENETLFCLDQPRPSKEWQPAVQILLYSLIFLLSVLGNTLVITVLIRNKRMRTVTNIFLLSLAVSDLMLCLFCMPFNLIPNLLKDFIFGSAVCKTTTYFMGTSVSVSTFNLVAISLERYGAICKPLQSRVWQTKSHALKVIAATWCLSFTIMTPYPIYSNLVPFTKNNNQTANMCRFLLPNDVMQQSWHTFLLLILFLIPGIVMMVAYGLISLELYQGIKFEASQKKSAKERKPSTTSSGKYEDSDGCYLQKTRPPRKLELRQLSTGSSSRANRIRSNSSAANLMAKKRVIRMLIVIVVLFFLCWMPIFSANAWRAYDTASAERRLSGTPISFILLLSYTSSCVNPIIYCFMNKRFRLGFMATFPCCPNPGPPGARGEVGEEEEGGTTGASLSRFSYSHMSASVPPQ
Kind of assay: Antagonist activity at recombinant human […] receptor assessed as inhibition of agonist induced effect at 10 uM by aequorin reporter based assay. In kind it is functional.

Assay [8] has as its target 5-hydroxytryptamine receptor 5A (Homo sapiens) (UniProt P47898). Briefly: Agonist activity at recombinant human 5-HT5A at 10 uM by aequorin reporter based assay relative to agonist. It counts as functional.
Assay [9] deals with Beta-1 adrenergic receptor (Homo sapiens) (UniProt P08588). Kind of assay: Agonist activity at recombinant human beta-1 adrenergic receptor assessed as induction of cAMP levels at 10 uM by HTRF assay relative to agonist. In kind it is functional.
Beta-1 adrenergic receptor (Homo sapiens), sequence (P08588 whole entry, looked up): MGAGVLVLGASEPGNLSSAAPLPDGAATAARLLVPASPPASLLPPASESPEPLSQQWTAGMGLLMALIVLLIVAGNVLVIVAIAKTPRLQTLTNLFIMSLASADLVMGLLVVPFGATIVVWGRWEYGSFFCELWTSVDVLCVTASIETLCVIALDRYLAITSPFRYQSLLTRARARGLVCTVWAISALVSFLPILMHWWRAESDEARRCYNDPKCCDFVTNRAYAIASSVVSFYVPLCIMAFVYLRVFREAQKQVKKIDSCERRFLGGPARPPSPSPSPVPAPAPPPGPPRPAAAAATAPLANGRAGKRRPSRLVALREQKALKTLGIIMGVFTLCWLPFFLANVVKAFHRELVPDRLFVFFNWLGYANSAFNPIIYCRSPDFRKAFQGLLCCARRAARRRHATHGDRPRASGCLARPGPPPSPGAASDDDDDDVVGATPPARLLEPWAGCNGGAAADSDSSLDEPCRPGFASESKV

5-hydroxytryptamine receptor 5A (Homo sapiens), sequence (P47898 whole entry): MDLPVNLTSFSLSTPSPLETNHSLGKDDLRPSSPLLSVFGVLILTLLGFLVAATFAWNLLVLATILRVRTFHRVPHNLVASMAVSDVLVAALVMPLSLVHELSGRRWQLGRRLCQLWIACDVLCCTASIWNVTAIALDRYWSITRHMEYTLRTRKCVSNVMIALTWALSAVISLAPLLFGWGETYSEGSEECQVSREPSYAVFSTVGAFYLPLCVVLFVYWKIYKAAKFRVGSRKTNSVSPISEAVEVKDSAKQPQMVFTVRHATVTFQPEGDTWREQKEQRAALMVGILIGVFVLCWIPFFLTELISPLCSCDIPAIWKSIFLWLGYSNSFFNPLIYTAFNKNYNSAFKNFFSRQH

In general, inhibition refers to the change of the read-out against control, counted positive when it falls. `CCCc1ccc(C(=O)NCCCN(C)Cc2ccccc2)cc1`: the Activity was -1% in assay [1]; 3% in assay [2]; 63% in [3]; 1% in assay [5]; 0% in [8]; 6% in assay [9]. Also, the inhibition was determined as 72% in assay [4], 41% in assay [6] and 17% in assay [7].

With `CN(CCCNC(=O)c1ccc(Cl)cc1)Cc1ccccc1`, the Activity in [1] was 2%; in assay [2] it was -4%; in assay [3], 12%; in [5], -10%; in [8], 0%; in [9] it was 4%. For the same compound, the figures for the inhibition in assay [4], in [6] and in [7] were 73%, 23% and 12%, respectively.

In the case of `CN(CCCNC(=O)c1ccc(Br)cc1)Cc1ccccc1`, the Activity in assay [1] was 1%; in assay [2], -6%; in assay [3], 11%; in [5], -8%; in assay [8], 1%; in assay [9] it was 2%. Moreover, the values for the inhibition in assay [4], in [6] and in [7] were 81%, 11% and -5%, respectively.

For the compound `COc1cccc(C(=O)NCCCN(C)Cc2ccccc2)c1`, the Activity was 0% in assay [1]; -3% in assay [2]; 5% in [3]; 10% in assay [5]; -3% in assay [8]; -10% in assay [9]. Moreover, the inhibition stood at 56% in assay [4], 2% in assay [6] and 18% in assay [7].

As for `CN(CCCNC(=O)c1ccc(C(F)(F)F)cc1)Cc1ccccc1`, the Activity in assay [1] is -1%; in [2] it was 7%; in [3], -7%; in [5], -7%; in assay [8] it was -1%; in assay [9] it was 2%. The inhibition in assay [4] was found to be 70%; in assay [6] it was 36%; in assay [7], 22%.

`CN(CCCNC(=O)c1ccc([N+](=O)[O-])cc1)Cc1ccccc1`: the Activity in [1] was 0%; in assay [2] it was -1%; in assay [3], 2%; in [5], -7%; in assay [8], -1%; in [9], 3%. In addition, the inhibition came to 63% in [4], 30% in assay [6] and 14% in [7].

For `CN(CCNC(=O)c1ccc(C#N)cc1)Cc1ccccc1`, the Activity in assay [1] is 0%; in [2] it was 0%; in assay [3], -1%; in assay [5], -3%; in [8], -7%; in [9] it was -5%. The inhibition in assay [4] was found to be 89%; in assay [6] it was 17%; in [7], 21%.

For the compound `COc1ccc(C(=O)NCCCN(C)Cc2ccccc2)cc1`, the Activity in [1] was 0%; in assay [2] it was -5%; in assay [3] it was 5%; in assay [5], 9%; in [8], -5%; in assay [9] it was -12%. Besides, the inhibition was 39% in [4], 0% in assay [6] and 14% in [7].

For the compound `CN(CCNC(=O)c1ccc(Cl)cc1)Cc1ccccc1`, the Activity was 0% in assay [1]; -2% in assay [2]; 62% in assay [3]; -7% in assay [5]; -1% in assay [8]; 7% in assay [9]. Also, the inhibition turned out to be 96% in assay [4], 35% in assay [6] and 26% in assay [7].

`CN(CCCNC(=O)c1ccc(Cl)cc1)CCc1ccccc1`: the Activity in assay [1] was -1%; in [2], -6%; in [3] it was 75%; in assay [5], 15%; in [8], 0%; in [9], 18%. Further, the figures for the inhibition in assay [4], in assay [6] and in assay [7] were 98%, 40% and 29%, respectively.

As for `CN(CCCNC(=O)c1cccc(Br)c1)Cc1ccccc1`, the Activity in assay [1] was 0%; in assay [2], -3%; in assay [3], -3%; in assay [5] it was -3%; in [8], -1%; in assay [9] it was 10%. Moreover, the results for the inhibition in [4], in assay [6] and in assay [7] were 97%, 43% and 10%, respectively.

With `CN(CCNC(=O)c1ccc([N+](=O)[O-])cc1)Cc1ccccc1`, the Activity is 0% in assay [1]; -1% in [2]; 13% in assay [3]; 9% in assay [5]; -9% in [8]; -3% in assay [9]. In addition, the inhibition in [4] amounted to 84%; in [6], 21%; in assay [7] it was 18%.

Source of the values: ChEMBL document CHEMBL4130363, “Synthesis and pharmacological evaluation of benzamide derivatives as potent and selective sigma-1 protein ligands” (Eur J Med Chem, 2017).
